# Columns and labels:
# [1] = tested on: butyryl cholinesterase (EC 3.1.1.8); assay: Stability toward purified esterases: butyryl cholinesterase (EC 3.1.1.8); assay type: in vitro ADME, horse; conditions: pH 8.0, 37.0° C., over 2-3 hours
# Experimental: (§1) The effect of esterase (carboxylic-ester hydrolase, EC 3.1.1.1) and butyryl cholinesterase (EC 3.1.1.8), isolated from porcine liver and horse serum, was tested as follows: A portion of the enzyme and […] of a standard solution of the compound in methanol were added to 2.50 ml of 0.05M TRIS buffer, pH 8.0, previously equilibrated to 37.0° C., resulting in solutions containing 5.2 units of enzyme and 0.4 mg of compound in one ml. Aliquots ([…]) were injected into the column at various intervals.
# [2] = Metabolism in bovine liver microsomal preparations; assay type: in vitro ADME; conditions: 37.0° C., pH 8.0, 1 mg/ml
# Experimental: Two kg of minced bovine liver were mixed with 4 liters of homogenization medium (0.34M sucrose, 1 mM EDTA, and 5 mM TRIS-HCI buffer ph 7.5) and sieved through a screen. The sieved tissue was homogenized for 2 min in a Tekmar grinder. The homogenate was centrifuged successively at 980 g for 10 min and 10960 g for 10 min. The resulting supernatant was then centrifuged at 31300 g for 45 min. All procedures were carried out at 4° C. The microsomal pallet was suspended in an equal volume of 20 mM TRIS-HCI buffer pH 8.0 containing 1 mM EDTA. Centrifugation of this suspension at 123000 g for 90 min gave a pallet which is referred to as the washed microsomes. This pallet could be stored frozen for months with little loss of activity.
# The washed microsomes were mixed in a ratio of 1:2 (v/v) with 50 mM TRIS-HCI buffer ph 8.0. To 3.0 ml of this solution, previously equilibrated to 37.0° C., was added 0.2 ml of a standard solution of the compound to be tested resulting in an initial concentration of 1 mg/ml. Samples of 0.50 ml were withdrawn from the test medium, mixed immediately with 1.0 ml of ice cold 95% ethanol and place in a freezer. When all samples had been collected, they were centrifuged and the supernatant analyzed by HPLC.
# [3] = Stability toward human plasma; assay type: in vitro ADME; conditions: 37.0° C., over 2-3 hours
# Experimental: The freshly collected human plasma was stored in a refrigerator and used within 1 week from the date it was collected. A portion of […] at a standard methanol solution of the compound to be tested was mixed with 7.0 ml of plasma, previously equilibrated to 37.0° C., to result in an initial concentration of 0.2 mg/ml. Samples of 1.0 ml were withdrawn from the test medium, mixed immediately with 4.0 ml of ice cold 95% ethanol, and placed in a freezer. When all samples had been collected, they were centrifuged and the supernatant analyzed by HPLC.
# [4] = Estimation of LD50 in mice; conditions: mouse, in vivo, ip, intraperitoneal in dimethylsulfoxide, observed for 48 hr
# Excerpt: The LD50 in white CD-1 male mice (average mass, 24.0±0.1 g) was estimated.
# [5] = tested on: esterase (carboxylic-ester hydrolase, EC 3.1.1.1); assay: Stability toward purified esterases: esterase (carboxylic-ester hydrolase, EC 3.1.1.1); assay type: in vitro ADME, porcine; conditions: pH 8.0, 37.0° C., over 2-3 hours
# Experimental: as §1
# [6] = In vivo evaluation in rats (blood, urine and feces levels); set-up: species or system female Wistar rats; conditions: for Compound in urine after intravenous injection: i.v.
# Experimental: A solution of test compound in DMSO was injected slowly through the jugular vein (65 mg/kg) to a group of female Wistar rats (150-200 g), 1.00 ml blood samples were taken at various time intervals, mixed with 2.00 ml of ice cold acetonitrile, and placed in a freezer. When all samples had been collected, they were centrifuged and the supernatant analyzed by HPLC. In a separate experiment urine samples were collected after i.v. administration of the test compound. A solution of test compound in polyethylene glycol was given p.o. to a group of rats (0.25 g/kg) and blood samples analyzed as before. Also, urine and feces samples were analyzed after p.o. administration of the test compound.
# ventricular arrhythmia = assay: Evaluation of antiarrhythmic activity in dogs (ouabain-induced ventricular arrhythmia); assay type: in vivo, dog; conditions: for minimal effective dose: Canis lupus familiaris, iv, ouabain arrhythmia, i.v. infusion 0.5 mg/kg/min, read-out: Dose ± s.d. (dose of compound producing reversion to normal rhythm); for Duration of normal sinus rhythm after drug infusion: after end of i.v. infusion; for Dose required to produce reversion to normal rhythm relative to lidocaine / Duration of the effect relative to lidocaine: compared with lidocaine; for Arrhythmia activity in dogs: in words
# Experimental: Dogs of either sex were anesthetized with pentabarbital sodium, 30 mg/kg, i.v. A lead II EKG was recorded and heart rate monitored on a Grass polygraph with appropriate signal treatment modules. […] After a 20 minute stabilization period during which fast paper speed record segments (100 mm/sec) were taken to assess EKG profile, a […] dose of ouabain was injected intravenously as bolus. This was followed by 5 mg/kg doses of ouabain i.v., every 10 minutes, until a ventricular arrthymias occured--at lest 50% ventricular or septal ectopic beats. This usually occurred after a total dose of about 60 mg/kg. After 10 min of sustained arrhythmia, the compound to be tested was given by i.v. in fusion at a rate of 0.5 mg/kg/min (2 ml/min, flow-rate). The infusion was maintained until a normal sinus node heart rhythm was noted. The infusion was stopped and the total dose of compound administered was determined. The length of time that the normal sinus rhythm persisted after the end of infusion of the compound was also determined.
# In the table above, "dose" is dose of compound mg/kg producing reversion to normal rhythm. "Duration" is duration in minutes of normal sinus rhythm after drug infusion.
# [7] = intravenous, after uptake by highly perfused organs; cited from earlier work
SMILES,Stability / degradation by butyryl cholinesterase [1],Hydrolysis by bovine liver microsomes [2],Stability / degradation in human plasma [3],LD50 at 48 h [4] [mg/kg],Stability / degradation by esterase [5],Compound in urine after intravenous injection [6],Unchanged compound in blood ([6]; p.o.),Unchanged compound in urine ([6]; p.o.),Absorption after oral administration ([6]; p.o. 0.25 g/kg),"dose excreted ([6]; rat, feces, po, 250 mg/kg, p.o., read-out: Unchanged compound in feces) [%]",minimal effective dose (ventricular arrhythmia) [mg/kg],Duration of normal sinus rhythm after drug infusion (ventricular arrhythmia) [min],Dose required to produce reversion to normal rhythm relative to lidocaine (ventricular arrhythmia),Duration of the effect relative to lidocaine (ventricular arrhythmia),Arrhythmia activity in dogs (ventricular arrhythmia),Bioavailability ([6]; p.o.),Unchanged compound in feces (in words) ([6]; p.o.),Part of the dose left in blood [7]
"Cc1cccc(C)c1NC(=O)C[S+](C)C [Example 2, 2-Dimethylsulfonic-N-(2,6-dimethylphenyl)acetamide iodide]",no degradation could be observed over a period of 2-3 hours,hydrolyzed very slowly,no degradation could be observed over a period of 2-3 hours,300,no degradation could be observed over a period of 2-3 hours,Only minimal amounts,significant amounts of the unchanged compound could be detected in the blood,nothing in the urine,absorbed slowly,~7,3.82 ± 0.85,> 15,somewhat larger doses were required,much longer,considerable arrhythmia activity,,,
"CCSCC(=O)Nc1c(C)cccc1C [Example 5, 2-Ethylthio-N-(2,6-dimethylphenyl)acetamide]",no degradation could be observed over a period of 2-3 hours,,no degradation could be observed over a period of 2-3 hours,2100,no degradation could be observed over a period of 2-3 hours,Only minimal amounts,,no unchanged compound could be detected in the feces or the urine,,,2.5 ± 2.8,> 20,somewhat larger doses were required,much longer,considerable arrhythmia activity,good bioavailability,no unchanged compound could be detected in the feces or the urine,
"CCN(CC)CC(=O)Nc1c(C)cccc1C [lidocaine, reference compound]",,,,,,,,,,,1.84 ± 0.32,1.23 ± 0.37,,,,,,about 15%

# From patent US4859707A, “Sulfur-substituted phenylacetamides” (Key Pharmaceuticals, Inc., priority 1983, dated 1989)
